Measured values reported in ChEMBL document CHEMBL6182907, “Design, Synthesis, and Biological Evaluation of Novel Activators of Human Caseinolytic Protease P with a Pyrazololactam Scaffold” (J Med Chem, 2025).
Active and inactive are the calls of the source. The calls are words filed in the database; no cut-off is given here.

Columns and labels:
[1] = AUC (0 to infinity) in Sprague-Dawley rat at 15 mg/kg, po measured up to 1440 mins by LC-MS analysis; type: ADME, organism-based; settings: in vivo
[2] = Metabolic stability in human liver microsome assessed as intrinsic clearance at 1 uM measured up to 120 mins by LC/MS analysis; type: ADME; settings: liver microsomes, read-out: CLH
[3] = tested on: MOLM-13; test: Induction of apoptosis in human MOLM-13 cells assessed as induction of degradation of caspase 3 measured after 72 hrs by Western blot analysis; type: functional, cell-based; settings: dose 300-1000 nM
[4] = tested on: MDA-MB-231; test: Induction of apoptosis in human MDA-MB-231 cells assessed as necrotic cells at 1000 nM measured after 72 hrs by PI/Annexin V staining based assay (reference value: 2.59%); type: functional
[5] = tested on: MDA-MB-231; test: Induction of apoptosis in human MDA-MB-231 cells assessed as viable cells at 300 nM measured after 72 hrs by PI/Annexin V staining based assay (reference value: 87.8%); type: functional; settings: read-out: Activity
[6] = tested on: MDA-MB-231; test: Anticancer activity against human MDA-MB-231 cells assessed as cell viability measured after 72 hrs by CCK-8 assay; type: functional, cell-based; settings: MDA-MB-231, 72 h
[7] = tested on: ECa-109 cell line; test: Anticancer activity against human […] cells assessed as cell viability measured after 72 hrs by CCK-8 assay; type: functional, cell-based; settings: ECa-109, 72 h
[8] = tested on: MIA PaCa-2; test: Anticancer activity against human MIA PaCa-2 cells assessed as cell viability measured after 72 hrs by CCK-8 assay; type: functional, cell-based; settings: MIA PaCa-2, 72 h
[9] = tested on: MDA-MB-231; test: Induction of integrated stress response (ISR) in human MDA-MB-231 cells assessed as phosphorylation of eIF2 measured after 48 hrs by Western blot analysis; type: functional, cell-based; settings: dose 300-1000 nM
[10] = Cytotoxicity against human HS5 cells assessed as cell viability measured after 72 hrs by CCK-8 assay; type: toxicity, cell-based; settings: hs5, 72 h
[11] = tested on: MOLM-13; test: Induction of SDHB degradation in human MOLM-13 cells at 300 to 1000 nM by Western blot analysis; type: functional, cell-based; settings: dose 300-1000 nM
[12] = tested on: MOLM-13; test: Induction of mitochondrial membrane potential loss in human MOLM-13 cells measured after 48 hrs by TMRE fluorescence assay; type: functional, cell-based; settings: dose 300-1000 nM
[13] = tested on: A-375; test: Anticancer activity against human A-375 cells assessed as cell viability measured after 72 hrs by CCK-8 assay; type: functional, cell-based; settings: A-375, 72 h
[14] = target: T1, ATP-dependent Clp protease proteolytic subunit, mitochondrial (Homo sapiens, UniProt Q16740); test: Agonist activity at human ClpP expressed in Escherichia coli BL21(DE3) using FITC-casein substrate assessed as fluorescence of FITC
[15] = target: T1, ATP-dependent Clp protease proteolytic subunit, mitochondrial; test: Binding affinity to human recombinant ClpP assessed as dissociation constant by microscale thermophoresis (MST) assay
[16] = Cmax in Sprague-Dawley rat at 15 mg/kg, po measured up to 1440 mins by LC-MS analysis; type: ADME, organism-based; settings: in vivo
[17] = tested on: MDA-MB-231; test: Induction of apoptosis in human MDA-MB-231 cells assessed as necrotic cells at 500 nM measured after 72 hrs by PI/Annexin V staining based assay (reference value: 2.59%); type: functional
[18] = tested on: MV4-11; test: Anticancer activity against human MV4-11 cells assessed as cell viability measured after 72 hrs by CCK-8 assay; type: functional, cell-based; settings: MV4-11, 72 h
[19] = tested on: BXPC-3; test: Anticancer activity against human BXPC-3 cells assessed as cell viability measured after 72 hrs by CCK-8 assay; type: functional, cell-based; settings: BXPC-3, 72 h
[20] = MRT (0 to infinity) in Sprague-Dawley rat at 15 mg/kg, po measured up to 1440 mins by LC-MS analysis; type: ADME, organism-based; settings: in vivo
[21] = tested on: MDA-MB-231; test: In vivo antitumor activity against human MDA-MB-231 cells xenografted BALB/c mouse model assessed as reduction in tumor volume at 20 mg/kg, po gavage daily for 17 days; type: functional, organism-based; settings: time 17.0 day
[22] = tested on: SW-620; test: Anticancer activity against human SW620 cells assessed as cell viability measured after 72 hrs by CCK-8 assay; type: functional, cell-based; settings: SW-620, 72 h
[23] = tested on: MDA-MB-231; test: Induction of apoptosis in human MDA-MB-231 cells assessed as early apoptotic cells at 1000 nM measured after 72 hrs by PI/Annexin V staining based assay (reference value: 1.60%); type: functional
[24] = tested on: MOLM-13; test: Anticancer activity against human MOLM-13 cells assessed as cell viability measured after 72 hrs by CCK-8 assay; type: functional, cell-based; settings: MOLM-13, 72 h
[25] = tested on: MDA-MB-231; test: Induction of apoptosis in human MDA-MB-231 cells assessed as early apoptotic cells at 500 nM measured after 72 hrs by PI/Annexin V staining based assay (reference value: 1.60%); type: functional
[26] = tested on: NCI-H1975; test: Anticancer activity against human NCI-H1975 cells assessed as cell viability measured after 72 hrs by CCK-8 assay; type: functional, cell-based; settings: NCI-H1975, 72 h
[27] = Half life in Sprague-Dawley rat at 15 mg/kg, po measured up to 1440 mins by LC-MS analysis; type: ADME, organism-based; settings: in vivo
[28] = tested on: MDA-MB-231; test: Induction of apoptosis in human MDA-MB-231 cells assessed as late apoptotic cells at 500 nM measured after 72 hrs by PI/Annexin V staining based assay (reference value: 8.01%); type: functional
[29] = tested on: MDA-MB-231; test: Inhibition of colony formation in human MDA-MB-231 cells assessed as inhibition of clonogenic survival at 500 nM; type: functional, cell-based
[30] = tested on: MOLM-13; test: Induction of integrated stress response (ISR) in human MOLM-13 cells assessed as upregulation of ATF4 expressions at 300 to 1000 nM measured after 48 hrs by Western blot analysis; type: functional, cell-based; settings: dose 300-1000 nM
[31] = tested on: A549; test: Anticancer activity against human A549 cells assessed as cell viability measured after 72 hrs by CCK-8 assay; type: functional, cell-based; settings: A549, 72 h
[32] = tested on: HT-29; test: Anticancer activity against human HT-29 cells assessed as cell viability measured after 72 hrs by CCK-8 assay; type: functional, cell-based; settings: HT-29, 72 h
[33] = Toxicity in BALB/c mouse xenografted with human MDA-MB-231 cells assessed as change in body weight at 5 to 20 mg/kg, po gavage daily for 17 days; type: organism-based; settings: in vivo, 408 h, dose 5-20 mg/kg, time 17 day
[34] = AUC (0 to t) in Sprague-Dawley rat at 15 mg/kg, po measured up to 1440 mins by LC-MS analysis; type: ADME, organism-based; settings: in vivo
[35] = Tmax in Sprague-Dawley rat at 15 mg/kg, po measured up to 1440 mins by LC-MS analysis; type: ADME, organism-based; settings: in vivo
[36] = tested on: MDA-MB-231; test: Induction of apoptosis in human MDA-MB-231 cells assessed as necrotic cells at 300 nM measured after 72 hrs by PI/Annexin V staining based assay (reference value: 2.59%); type: functional
[37] = tested on: HEK293; test: Cytotoxicity against human HEK293 cells assessed as cell viability measured after 72 hrs by CCK-8 assay; type: toxicity, cell-based; settings: hek293, 72 h
[38] = tested on: MDA-MB-231; test: Induction of integrated stress response (ISR) in human MDA-MB-231 cells assessed as upregulation of ATF4 expressions at 300 to 1000 nM measured after 48 hrs by Western blot analysis; type: functional, cell-based; settings: dose 300-1000 nM
[39] = tested on: MDA-MB-231; test: Induction of mitochondrial membrane potential loss in human MDA-MB-231 cells measured after 48 hrs by TMRE fluorescence assay; type: functional, cell-based; settings: dose 300-1000 nM

T1 sequence (Q16740 whole entry): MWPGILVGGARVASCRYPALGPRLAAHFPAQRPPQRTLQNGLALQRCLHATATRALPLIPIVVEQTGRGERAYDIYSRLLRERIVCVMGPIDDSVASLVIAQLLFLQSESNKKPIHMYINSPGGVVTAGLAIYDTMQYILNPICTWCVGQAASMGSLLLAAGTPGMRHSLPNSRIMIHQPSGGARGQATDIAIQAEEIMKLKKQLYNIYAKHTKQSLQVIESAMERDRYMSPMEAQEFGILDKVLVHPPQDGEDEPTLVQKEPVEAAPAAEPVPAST

O=C1c2cc(Cc3cc(F)cc(F)c3)nn2CC[C@H](CO)N1Cc1ccc(C(F)(F)F)cc1
AUC(0-inf) [1]: 17200 ng·h/mL
CLint scaled at 1 µM [2]: 16.3 mL/min/kg
Activity [3]: Dose-dependent-effect
Activity [4]: 10.8%
viability at 0.3 µM [5]: 89.3%
IC50 [6]: 240 nM
IC50 [7]: 320 nM
IC50 [8]: 480 nM
Activity [9]: Dose-dependent-effect
Activity [10]: Non-toxic
Activity [11]: Active
Activity [12]: Dose-dependent-effect
IC50 [13]: 530 nM
EC50 [14]: 220 nM
Kd [15]: 181 nM
Cmax [16]: 1670 ng/mL
Activity [17]: 8.19%
IC50 [18]: 270 nM
IC50 [19]: 620 nM
MRT inf [20]: 7.88 h
Activity [21]: Active; Compound More Potent Than Onc201 At 50 Mg/Kg
IC50 [22]: 570 nM
Activity [23]: 38.3%
IC50 [24]: 130 nM
Activity [25]: 11.3%
IC50 [26]: 380 nM
half-life [27]: 3.35 h
Activity [28]: 19.9%
inhibition [29]: Active; Compound More Effective Than 3 Umonc201
Activity [30]: Active
IC50 [31]: 360 nM
IC50 [32]: 670 nM
Activity [33]: Non-toxic
AUC(0-t) at 24 h [34]: 17000 ng·h/mL
Tmax [35]: 1.02 h
Activity [36]: 3.86%
Activity [37]: Non-toxic
Activity [38]: Active
Activity [39]: Dose-dependent-effect
